For one molecule, Kd results are on record in publication PMC9737847, “Complex Formation between Cytochrome c and a Tetra-alanino-calix[4]arene” (International Journal of Molecular Sciences, 2022).

Usually Kd stands for the equilibrium constant for the complex coming apart. Read a low Kd as a tighter complex.

For the test, the target named is T1, cytochrome c (Saccharomyces cerevisiae, UniProt P00044, C108T).
T1 construct: gene CYC1; 15N-labeled cytochrome c C102T, residues numbered from -5 to 103
Nature of the test: 1H-15N HSQC NMR titration, […] binding model, […] °C, pH […].

T1 sequence (P00044 2-109 C108T): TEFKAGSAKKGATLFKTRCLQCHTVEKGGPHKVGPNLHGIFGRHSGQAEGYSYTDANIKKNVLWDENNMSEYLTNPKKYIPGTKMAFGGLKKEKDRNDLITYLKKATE

In turn, `C[C@H](NC(=O)c1cc2c3c(c1)Cc1cc(C(=O)N[C@@H](C)C(=O)O)cc4c1OCCOCCOc1c(cc(C(=O)N[C@@H](C)C(=O)O)cc1Cc1cc(C(=O)N[C@@H](C)C(=O)O)cc(c1OCCOCCO3)C2)C4)C(=O)O` [compound 1, Tetra-alanino-calix[4]arene-biscrown-3] registered a Kd of around 400 µM.
